{
  "source": "patent US20240398767A1",
  "about": "“INHIBITORS OF THE MTDH-SND1 PROTEIN COMPLEX FOR CANCER THERAPY” (The Trustees of Princeton University, priority 2021, published 2024)",
  "key": {"[1]": {"test_system": "PyMT tumors with MTDH KO or SND1 KD", "assay": "PyMT tumor models with MTDH KO or SND1 KD in FVB mice", "type": "in vivo, FVB female mice", "settings": "6 weeks treatment", "procedure": "FIG. 5G, 10 k of the cells of FIG. 5F were inoculated into FVB female mice and treated with or without C26-A6 after primary tumors reached to approximately 2 mm in diameter. 6 weeks after treatment, tumor size was determined. Vehicle, n=10 mice; C26-A6, n=10 mice.\nFIG. 5H, 10 k of the cells of FIG. 5F were inoculated into FVB female mice and treated with or without C26-A6 after primary tumors reached to approximately 2 mm in diameter. 6 weeks after treatment, spontaneous lung metastasis was determined. The lung metastatic areas of the representative lungs were highlighted with red. Vehicle, n=10 mice; C26-A6, n=10 mice. Size bar, 5 mm.\nFIG. 5J, 10 k of the cells of FIG. 5I were injected into FVB females and treated similarly as in FIGS. 5G, 5H. Tumor size was assessed. Vehicle, n=10 mice; C26-A6, n=10 mice.\nFIG. 5K, 10 k of the cells of FIG. 5I were injected into FVB females and treated similarly as in FIGS. 5G, 5H. Lung metastasis was assessed. The lung metastatic areas of the representative lungs were highlighted with red. Vehicle, n=10 mice; C26-A6, n=10 mice. Size bar, 5 mm.\nNext, to further validate that the anti-tumor effect of C26-A6 depends on its on-target effects by disrupting MTDH-SND1 complex, PyMT; UBC-Cre^ERT+/−;Mtdh^fl/fl tumor cells with Mtdh depletion or with endogenous Snd1 KD were employed for the similar assay as in FIG. 5-1a. […]"}, "4TO7 lung metastases": {"test_system": "4TO7 lung metastases", "assay": "Established 4TO7 lung macrometastases", "type": "in vivo, Balb/C females", "procedure": "For FIGS. 7A-7D, 2 k 4TO7 cells were injected into Balb/C females. 2 weeks after the injections, the mice were randomized based on lung metastasis that indicated by BLI, and were divided into four groups followed by vehicle, paclitaxel (Pac), and C26-A6 treatment alone or in combination. For Pac, the mice were treated with 20 mg/kg of Pac twice per week for the first two week and then once per week after that, For C26-A6, the mice were treated with 15 mg/kg of C26-A6 5 days per week. n=6 mice per group. Data represent mean±SEM.\nFIG. 7A, Representative mice right before the treatment (week 2) and at week 10 are shown.\nFIG. 7B, The BLI signal was quantified at week 2. Significance determined by one-way ANOVA analysis with Dunnett's test for multiple comparisons.\nFIG. 7C, The metastasis progression of each individual is shown.\nFIG. 7D, Survival rate in each group was analyzed. Significance determined by two-sided Log-rank test.\nLastly, to mimic the clinical scenario of adjuvant chemotherapy following surgical removal of the primary tumors, SCP28 mammary tumors were removed when they reached 5 mm in diameter, the mice were then randomly separated into four groups and subjected to the different treatment regimens as above. […] The mice were then treated with vehicle or paclitaxel and C26-A6 alone or in combination, and the metastasis progression was monitored by BLL."}},
  "data": [
    {"compound": "COc1ccc(Cl)cc1S(=O)(=O)Nc1cccn2nc(C)nc12", "note": "[Analog C26-A6]", "values": [
      {"measurement": "tumor growth or metastasis", "setting": "[1]", "result": "did not further inhibit tumor growth or metastasis"},
      {"measurement": "metastatic growth (BLI)", "setting": "4TO7 lung metastases; Pac 20 mg/kg, C26-A6 15 mg/kg 5 days per week", "result": "slowed down metastatic growth"},
      {"measurement": "metastasis shrinkage", "setting": "4TO7 lung metastases; six mice per group", "result": "did not result in metastasis shrinkage"}
    ]}
  ]
}
